Results: patent US8592374B2, “Neurotrophic peptides” (Research Foundation for Mental Hygiene, Inc., priority 2007, dated 2013)
Entries after “also recorded” stand apart in the source; their conditions may differ. Peptide text beside a SMILES is read from it. * marks the point of attachment. X1 = NC(=O)C12CC3CC(CC(N*)(C3)C1)C2

Key:
normal adult mice [1] = test: Spatial reference memory task in the water maze; format: in vivo
Protocol: (§1) For the compound treatment, mice (8 animals/group) received subcutaneous implants of extended release depot pellets containing P21 or P22 at 25 nmol/day for 35 days of continuous dosing (Innovative Research of America, USA). For the control group (8 animals), pellets consisted of the carrier polymer only. Mice were anesthetized with 2.5% Avertin (0.38 ml for a 25 g animal). Under sterile conditions, pellets were implanted subcutaneously along the anterolateral aspect of the right shoulder with a precision trochar (Innovative Research of America). After recovery of anesthesia, animals were transferred to the animal colony. No complications associated with the implantation and treatment were observed. All procedures on animals were conducted in accordance with approved protocols from our Institutional Animal Welfare Committee.
Spatial reference learning and memory were evaluated in the water maze using a procedure adapted from that previously described by Morris et al. (Morris, R. G., et al. Nature 297 (1982): 681-3). The test required that mice used a spatial navigational strategy based on a spatial representation of the environment to find a fixed submerged escape platform. The procedure was performed in a 180 cm diameter circular tank. The pool was filled with water (21±1° C.) made opaque by adding white non-toxic paint. Acquisition started with the escape platform (15 cm diameter submerged 1 cm below water surface) in the Northwest quadrant and each animal was given 90 s to find the platform. […] At the end of each trial, the mouse was left on the platform for 20 seconds, then dried and returned to its home cage until the next trial. Five such acquisition trials were given on each day for four consecutive days. A test for retention, or probe trial (PT), was given 24 hours later. During the probe trial the mouse was allowed to swim in the tank without the escape platform for 60 seconds. This was followed by second and third probe trials 15 and 30 days after the first probe trial.
The measures of learning were the time and distance covered to reach the escape platform. For the probe trial, the tank was divided into four imaginary quadrants and a small zone where the escape platform had been. The measure of retention was calculated as the ratio of time spent or distance covered in target quadrant over that in the three other quadrants.
Mouse behavior in the water maze was monitored by a Samsung Digital Camera (SDC 4304) mounted to the ceiling and tracked and timed by a SMART (Pan Lab/San Diego Instruments) version 2.0.14 software.

normal adult mice [2] = test: One-trial object recognition test; format: in vivo; conditions: 25 nmol/day
Protocol: as §1
In the one-trial object recognition task, animals are exposed to two different objects which they have to identify as novel or familiar based on the memory of an earlier experience with one of the two objects they encountered in the same open field. The familiar object is explored shorter than the novel encountered one because the representation of the former is still available in memory. The one-trial object recognition task tests some aspects of episodic memory but is limited to memory of an object (what), the location of an object (where), and the context in which it was encountered (which). However, the temporal dimension of the episode remains inaccessible to the experimentator, and because of this reason this task in animals is considered a test of short term memory.
The test used was an adaptation of the procedure previously described by Sargolini and collaborators (Sargolini, F., et al. Behav Brain Res 138 (2003):153-63). The testing apparatus was a classic open field (i.e. a PVC square arena, 50×50 cm, with walls 40 cm high). […] Object discrimination was calculated as follows: OD=(time spent close to new object)/(time spent close to new object)+(time spent close to old object)×100

[3] = test system: adult hippocampal progenitors in the dentate gyrus; test: Neurogenesis in the DG (BrdU-positive and BrdU/NeuN-double-positive cells); format: in vivo, mice; conditions: 25 nmol/day for 35 days
Protocol: as §1
To investigate neurogenesis, BrdU (Sigma, USA) was given as two daily i.p. injections (100 mg/kg/dose) for five days starting on day 2 of compounds treatment.
At the end of the behavioral experiment, animals were anesthetized with an overdose of sodium pentobarbital (120 mg/kg) and transcardially perfused with 0.1 M phosphate buffered saline (PBS). After perfusion, the brains were removed from the skull, the left hemisphere was immediately frozen for future biochemical analysis and the right hemisphere was immersion fixed in 4% paraformaldehyde in 0.1 M PBS for at least 24 hours at room temperature. Tissues were equilibrated and stored in 30% sucrose solution at 4° C. until sectioning. The brains were sectioned sagittaly on a freezing sliding microtome at 40 μm through the entire hippocampus and the sections were stored in glycol anti-freeze solution (Ethylene glycol, glycerol and 0.1 M PBS in 3:3:4 ratio) at −20° C. until further processing.
For double labeling of BrdU and NeuN, brain sections were pretreated with 2 M HCl at 37° C. for 30 min and neutralized with 0.1 M borate buffer (pH 8.5) for 10 minutes. […]
Neurogenesis in the dentate gyrus was evaluated by counting the number of BrdU-positive and BrdU/NeuN-double-positive cells in the dentate gyrus (DG). The number of positive cells was determined in every fifth section in a series of 40 μm sagittal sections throughout the DG using unbiased sterology. All BrdU-positive cells in the subgranular zone (SGZ) and granule cell layer (GCL) were counted using a fluorescent microscope (Nikon Eclipse 90i, Nikon Corporation, Japan). Double labeled cells were assessed by a confocal imaging system (D-Eclipse C1, Nikon Corporation). […] For each brain, at least 100 cells were counted based on coefficient of error determinations.

## CC(=O)N[C@@H](CC(=O)O)C(=O)NCC(=O)NCC(=O)N[C@@H](CC(C)C)C(=O)NC12CC3CC(C1)CC(C(N)=O)(C3)C2 [Peptide P21, Ac-DGGL^AG-NH2] (Ac-DGGL-X1)
Normal adult mice [1]; 15 and 30 days after the end of the treatment
  time in the target quadrant, probe trials PT2 and PT3: beneficial effect disappeared; also recorded: showed no effect
Normal adult mice [1]; 24 hours after last day of training
  time in the target quadrant, first probe trial: focus significantly more on the target quadrant; also recorded: improved performance in the first probe trial
Normal adult mice [1]; training day 2 to 4, compared to control group
  escape latencies to reach the submerged platform (learning): significantly reduced; also recorded: increased performance in the learning of spatial memory task
Normal adult mice [2]; compared to other groups
  percentage of discrimination (object discrimination): significantly increased; also recorded: significantly improved the ability to discriminate a new object
Normal adult mice [2]; test phase after 15 minute delay
  time exploring the new object versus the familiar object: clearly spent more time exploring the new object
[3]
  BrdU positive cells in the DG (GCL and SGZ): significantly increased; also recorded: significant increase
  BrdU/NeuN positive cells in the DG (GCL): significantly increased; also recorded: significant increase
